Data from the supplement of paper PMC10307832.

Experiments:
Assay in all cases: relative viability (nuclei count vs DMSO), 5 days (fraction); higher = more cells survive
[1] = compound: NC(=O)[C@@H](CCC(F)(F)F)N(Cc1ccc(-c2ncon2)cc1F)S(=O)(=O)c1ccc(Cl)cc1 [Avagacestat] + C[C@@H](Oc1cc(-c2cnn(C3CCNCC3)c2)cnc1N)c1c(Cl)ccc(F)c1Cl [Crizotinib] (partner 1 µM)
Summary of the method: (§1)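 Dosing by pin tool came one day after lung cancer cell lines were seeded in 1536-well plates, using either one drug or a fixed anchor-drug dose plus five library-drug doses (not always all listed) in √10 steps. After 5 days, nuclei were counted on 4× images. Relative viability is treated-well nuclei count divided by vehicle-well nuclei count, and values are medians of duplicate plates.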

[2] = compound: NC(=O)[C@@H](CCC(F)(F)F)N(Cc1ccc(-c2ncon2)cc1F)S(=O)(=O)c1ccc(Cl)cc1 [Avagacestat] + CS(=O)(=O)CCNCc1ccc(-c2ccc3ncnc(Nc4ccc(OCc5cccc(F)c5)c(Cl)c4)c3c2)o1 [Lapatinib] (partner 2 µM)
Summary of the method: as §1

[3] = compound: NC(=O)[C@@H](CCC(F)(F)F)N(Cc1ccc(-c2ncon2)cc1F)S(=O)(=O)c1ccc(Cl)cc1 [Avagacestat] + Cc1nc(Nc2ncc(C(=O)Nc3c(C)cccc3Cl)s2)cc(N2CCN(CCO)CC2)n1 [Dasatinib] (partner 0.075 µM)
Summary of the method: as §1

[4] = compound: NC(=O)[C@@H](CCC(F)(F)F)N(Cc1ccc(-c2ncon2)cc1F)S(=O)(=O)c1ccc(Cl)cc1 [Avagacestat] + Nc1nc2[nH]cc(CCc3ccc(C(=O)N[C@@H](CCC(=O)O)C(=O)O)cc3)c2c(=O)[nH]1 [Pemetrexed] (partner 0.2 µM)
Summary of the method: as §1

Row | Cell Line | relative viability ([1]; first compound 0.08 µM) | relative viability ([1]; first compound 0.253 µM) | relative viability ([1]; first compound 0.8 µM) | relative viability ([1]; first compound 2.53 µM) | relative viability ([1]; first compound 8 µM) | relative viability ([2]; first compound 0.08 µM) | relative viability ([2]; first compound 0.253 µM) | relative viability ([2]; first compound 0.8 µM) | relative viability ([2]; first compound 8 µM) | relative viability ([3]; first compound 0.08 µM) | relative viability ([3]; first compound 0.253 µM) | relative viability ([3]; first compound 0.8 µM) | relative viability ([3]; first compound 2.53 µM) | relative viability ([3]; first compound 8 µM) | relative viability ([4]; first compound 0.08 µM) | relative viability ([4]; first compound 0.253 µM) | relative viability ([4]; first compound 0.8 µM) | relative viability ([4]; first compound 2.53 µM) | relative viability ([4]; first compound 8 µM) | relative viability ([2]; first compound 2.53 µM)
1 | NCI-H661 | 1.12 | 1.06 | 1.05 | 1.3 | 0.968 | 0.508 | 0.594 | 0.473 | 0.497 | 1.05 | 0.962 | 1.07 | 0.891 | 0.852 | 0.953 | 1.01 | 0.92 | 0.86 | 0.909 | –
2 | A-427 | 0.986 | 1.19 | 0.842 | 0.75 | 0.837 | 1.03 | 1.28 | 1.12 | 1.06 | 0.785 | 0.859 | 0.755 | 0.935 | 0.649 | 1.07 | 1.09 | 1.22 | 1.04 | 1.07 | 1.07
3 | COR-L 105 | 0.856 | 0.815 | 0.919 | 0.547 | 0.72 | 0.345 | 0.352 | 0.341 | 0.348 | 0.281 | 0.307 | 0.345 | 0.247 | 0.279 | 1.2 | 1.21 | 1.12 | 0.983 | 1.02 | 0.345
4 | NCI-H520 | 0.895 | 0.836 | 0.729 | 0.727 | 0.459 | 1.03 | 0.878 | 0.846 | 0.663 | 0.267 | 0.16 | 0.158 | 0.168 | 0.162 | 0.792 | 0.801 | 0.844 | 0.703 | 0.559 | 0.724
5 | NCI-H2228 | 0.472 | 0.487 | 0.427 | 0.465 | 0.423 | 1.33 | 0.875 | 1.52 | 0.718 | 0.546 | 0.426 | 0.435 | 0.408 | 0.474 | 0.364 | 0.35 | 0.346 | 0.301 | 0.302 | 1.13
6 | HCC-78 | 0.322 | 0.343 | 0.338 | 0.322 | 0.314 | 0.556 | 0.696 | 1.48 | 0.579 | 0.452 | 0.273 | 0.343 | 0.327 | 0.331 | 0.901 | 0.976 | 0.933 | 0.883 | 0.851 | 0.7
7 | NCI-H596 | 1.1 | 0.944 | 1.02 | 0.78 | 0.925 | 1.09 | 1.03 | 1.15 | 0.944 | 0.592 | 0.651 | 0.654 | 0.451 | 0.648 | 0.594 | 0.56 | 0.578 | 0.528 | 0.503 | 1.11
8 | UMC-11 | 0.632 | 0.664 | 0.749 | 0.582 | 0.585 | 1.17 | 1 | 1.26 | 0.921 | 0.633 | 0.598 | 0.647 | 0.541 | 0.473 | 0.884 | 0.887 | 1.01 | 0.796 | 0.718 | 1.1
